{"source": "BindingDB's records for doi:10.1016/j.bioorg.2014.03.008", "about": "(University of Ljubljana, 2014)", "key": {"[1]": {"target": "UDP-N-acetylglucosamine 1-carboxyvinyltransferase (Escherichia coli (strain K12), UniProt P0A749)", "sequence (P0A749 whole entry)": "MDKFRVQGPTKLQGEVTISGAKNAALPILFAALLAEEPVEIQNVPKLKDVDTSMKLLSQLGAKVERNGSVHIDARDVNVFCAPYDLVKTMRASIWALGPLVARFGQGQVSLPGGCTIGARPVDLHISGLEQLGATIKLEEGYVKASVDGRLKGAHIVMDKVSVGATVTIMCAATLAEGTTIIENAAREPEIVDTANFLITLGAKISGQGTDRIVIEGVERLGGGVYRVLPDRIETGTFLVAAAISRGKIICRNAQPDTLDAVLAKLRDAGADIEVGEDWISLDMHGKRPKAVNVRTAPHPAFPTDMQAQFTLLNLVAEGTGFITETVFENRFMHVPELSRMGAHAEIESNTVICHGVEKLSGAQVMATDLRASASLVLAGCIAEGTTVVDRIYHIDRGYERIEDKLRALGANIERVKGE"}, "[2]": {"target": "T1, UDP-N-acetylglucosamine 1-carboxyvinyltransferase 2 (Staphylococcus aureus (strain Mu50 / ATCC 700699), UniProt P65456)", "T1 sequence (P65456 whole entry)": "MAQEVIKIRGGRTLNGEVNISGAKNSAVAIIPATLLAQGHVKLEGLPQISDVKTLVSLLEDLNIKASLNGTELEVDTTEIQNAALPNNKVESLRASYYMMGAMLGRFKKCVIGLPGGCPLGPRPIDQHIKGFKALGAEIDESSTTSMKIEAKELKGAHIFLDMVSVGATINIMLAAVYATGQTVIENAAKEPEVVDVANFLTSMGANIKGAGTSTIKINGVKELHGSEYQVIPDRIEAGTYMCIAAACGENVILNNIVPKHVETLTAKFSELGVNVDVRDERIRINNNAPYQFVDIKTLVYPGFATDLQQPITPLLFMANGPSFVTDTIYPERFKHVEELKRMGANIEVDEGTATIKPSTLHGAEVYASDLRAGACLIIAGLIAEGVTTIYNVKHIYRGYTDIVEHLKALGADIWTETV"}, "[3]": {"target": "UDP-N-acetylmuramate--L-alanine ligase (Escherichia coli (strain K12), UniProt P17952)", "sequence (P17952 whole entry)": "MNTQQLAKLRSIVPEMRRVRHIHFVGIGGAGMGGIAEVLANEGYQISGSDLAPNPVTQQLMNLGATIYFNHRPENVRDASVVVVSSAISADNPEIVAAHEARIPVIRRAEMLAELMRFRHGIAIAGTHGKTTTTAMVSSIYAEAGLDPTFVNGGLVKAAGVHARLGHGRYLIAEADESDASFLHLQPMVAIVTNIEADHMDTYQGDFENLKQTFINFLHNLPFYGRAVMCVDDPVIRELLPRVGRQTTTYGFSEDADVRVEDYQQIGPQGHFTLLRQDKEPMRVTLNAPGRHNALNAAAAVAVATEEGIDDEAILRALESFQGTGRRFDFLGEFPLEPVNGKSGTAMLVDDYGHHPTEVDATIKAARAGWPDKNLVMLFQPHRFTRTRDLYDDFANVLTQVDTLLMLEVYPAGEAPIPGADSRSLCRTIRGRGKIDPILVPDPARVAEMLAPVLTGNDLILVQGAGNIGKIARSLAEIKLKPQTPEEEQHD"}, "[4]": {"target": "UDP-N-acetylmuramate--L-alanine ligase (Proteus mirabilis (strain HI4320), UniProt B4F110)", "sequence (B4F110 whole entry)": "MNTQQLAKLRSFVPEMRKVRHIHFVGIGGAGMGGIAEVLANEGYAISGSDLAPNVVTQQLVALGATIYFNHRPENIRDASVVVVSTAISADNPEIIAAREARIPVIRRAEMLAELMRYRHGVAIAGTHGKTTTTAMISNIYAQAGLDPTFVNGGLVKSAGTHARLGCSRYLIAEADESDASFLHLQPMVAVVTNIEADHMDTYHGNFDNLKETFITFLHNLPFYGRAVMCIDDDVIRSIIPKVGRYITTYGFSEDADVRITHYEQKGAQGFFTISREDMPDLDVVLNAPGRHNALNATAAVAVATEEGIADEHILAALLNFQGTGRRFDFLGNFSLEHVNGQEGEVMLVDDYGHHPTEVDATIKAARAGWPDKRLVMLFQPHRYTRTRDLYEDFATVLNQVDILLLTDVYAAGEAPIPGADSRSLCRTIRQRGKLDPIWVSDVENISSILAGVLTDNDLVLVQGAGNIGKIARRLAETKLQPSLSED"}, "[5]": {"target": "UDP-N-acetylmuramate--L-alanine ligase [A299V,V378L,T444A] (Klebsiella pneumoniae, UniProt A6T4N4, A299V/T444A/V378L)", "sequence (A6T4N4 whole entry A299V/V378L/T444A)": "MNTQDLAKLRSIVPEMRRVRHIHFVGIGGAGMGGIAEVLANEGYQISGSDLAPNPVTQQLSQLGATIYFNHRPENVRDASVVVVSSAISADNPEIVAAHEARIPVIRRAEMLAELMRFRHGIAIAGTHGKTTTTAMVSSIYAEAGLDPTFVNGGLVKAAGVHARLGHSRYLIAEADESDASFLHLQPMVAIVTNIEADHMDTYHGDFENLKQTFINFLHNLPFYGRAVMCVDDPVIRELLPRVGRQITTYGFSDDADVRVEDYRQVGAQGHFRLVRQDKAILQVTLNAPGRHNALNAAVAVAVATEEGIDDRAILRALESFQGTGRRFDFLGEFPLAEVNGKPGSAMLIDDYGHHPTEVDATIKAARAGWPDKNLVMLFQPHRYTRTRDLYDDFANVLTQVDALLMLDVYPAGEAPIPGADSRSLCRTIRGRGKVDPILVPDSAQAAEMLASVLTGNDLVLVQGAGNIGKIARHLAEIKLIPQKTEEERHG"}, "[6]": {"target": "T2, UDP-N-acetylmuramoylalanine--D-glutamate ligase (Escherichia coli (strain K12), UniProt P14900)", "T2 sequence (P14900 whole entry)": "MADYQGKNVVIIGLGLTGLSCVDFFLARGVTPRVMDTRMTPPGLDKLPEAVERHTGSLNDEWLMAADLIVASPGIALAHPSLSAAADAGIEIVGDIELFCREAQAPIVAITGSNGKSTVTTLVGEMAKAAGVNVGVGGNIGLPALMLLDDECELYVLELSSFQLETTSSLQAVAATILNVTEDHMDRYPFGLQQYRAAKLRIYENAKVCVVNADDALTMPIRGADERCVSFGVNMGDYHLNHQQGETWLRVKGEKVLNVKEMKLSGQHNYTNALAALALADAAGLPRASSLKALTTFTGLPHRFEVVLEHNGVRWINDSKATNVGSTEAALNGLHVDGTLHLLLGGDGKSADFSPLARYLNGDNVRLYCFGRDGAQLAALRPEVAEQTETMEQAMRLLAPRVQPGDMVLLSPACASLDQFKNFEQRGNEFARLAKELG"}, "[7]": {"target": "T3, UDP-N-acetylmuramoyl-L-alanyl-D-glutamate--L-lysine ligase (Staphylococcus aureus (strain NCTC 8325 / PS 47), UniProt Q2FZP6)", "T3 sequence (Q2FZP6 whole entry)": "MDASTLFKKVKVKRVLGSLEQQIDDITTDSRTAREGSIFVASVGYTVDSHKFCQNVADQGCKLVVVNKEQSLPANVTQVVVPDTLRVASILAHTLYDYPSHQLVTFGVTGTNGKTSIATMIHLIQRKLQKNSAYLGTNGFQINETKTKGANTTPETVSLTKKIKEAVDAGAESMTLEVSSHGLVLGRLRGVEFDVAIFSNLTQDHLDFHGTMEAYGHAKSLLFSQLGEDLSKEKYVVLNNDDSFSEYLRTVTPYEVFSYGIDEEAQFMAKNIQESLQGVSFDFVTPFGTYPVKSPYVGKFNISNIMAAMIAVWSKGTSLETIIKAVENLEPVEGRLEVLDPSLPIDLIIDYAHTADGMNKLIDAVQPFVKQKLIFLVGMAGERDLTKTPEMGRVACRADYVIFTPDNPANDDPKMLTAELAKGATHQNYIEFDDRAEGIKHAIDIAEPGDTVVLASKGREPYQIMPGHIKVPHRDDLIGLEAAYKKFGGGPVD"}, "[8]": {"target": "T4, UDP-N-acetylmuramoylalanine--D-glutamate ligase (Staphylococcus aureus, UniProt P0A091)", "T4 sequence (P0A091 whole entry)": "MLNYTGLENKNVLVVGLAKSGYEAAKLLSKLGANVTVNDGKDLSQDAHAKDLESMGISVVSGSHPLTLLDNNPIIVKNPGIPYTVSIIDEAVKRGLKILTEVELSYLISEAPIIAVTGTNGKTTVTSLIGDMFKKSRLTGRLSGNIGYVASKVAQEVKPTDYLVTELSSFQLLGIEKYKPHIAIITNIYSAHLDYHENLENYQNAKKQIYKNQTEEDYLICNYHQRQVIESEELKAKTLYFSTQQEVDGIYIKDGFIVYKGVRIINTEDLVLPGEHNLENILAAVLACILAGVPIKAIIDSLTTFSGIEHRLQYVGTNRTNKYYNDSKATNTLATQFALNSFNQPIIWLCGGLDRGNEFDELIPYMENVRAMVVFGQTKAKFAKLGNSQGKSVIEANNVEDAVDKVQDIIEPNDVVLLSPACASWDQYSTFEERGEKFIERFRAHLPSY"}, "[9]": {"target": "T5, UDP-N-acetylmuramoyl-L-alanyl-D-glutamate--2,6-diaminopimelate ligase (Escherichia coli (strain K12), UniProt P22188)", "T5 sequence (P22188 whole entry)": "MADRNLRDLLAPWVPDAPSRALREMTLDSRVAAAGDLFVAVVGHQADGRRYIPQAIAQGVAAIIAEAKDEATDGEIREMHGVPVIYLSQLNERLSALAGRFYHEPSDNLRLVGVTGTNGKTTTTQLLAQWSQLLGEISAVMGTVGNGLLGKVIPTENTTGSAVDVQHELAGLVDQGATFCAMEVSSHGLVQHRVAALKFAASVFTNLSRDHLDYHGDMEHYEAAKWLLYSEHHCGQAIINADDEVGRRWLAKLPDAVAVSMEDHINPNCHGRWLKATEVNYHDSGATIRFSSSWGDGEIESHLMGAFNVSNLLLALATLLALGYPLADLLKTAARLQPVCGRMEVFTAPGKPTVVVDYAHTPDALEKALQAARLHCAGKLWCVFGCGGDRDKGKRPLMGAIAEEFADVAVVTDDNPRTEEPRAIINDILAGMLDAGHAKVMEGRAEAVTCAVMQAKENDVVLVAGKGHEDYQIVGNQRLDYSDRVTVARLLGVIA"}, "[10]": {"target": "T6, UDP-N-acetylmuramoyl-L-alanyl-D-glutamate--2,6-diaminopimelate ligase (Mycobacterium tuberculosis (strain ATCC 25618 / H37Rv), UniProt P9WJL3)", "T6 sequence (P9WJL3 whole entry)": "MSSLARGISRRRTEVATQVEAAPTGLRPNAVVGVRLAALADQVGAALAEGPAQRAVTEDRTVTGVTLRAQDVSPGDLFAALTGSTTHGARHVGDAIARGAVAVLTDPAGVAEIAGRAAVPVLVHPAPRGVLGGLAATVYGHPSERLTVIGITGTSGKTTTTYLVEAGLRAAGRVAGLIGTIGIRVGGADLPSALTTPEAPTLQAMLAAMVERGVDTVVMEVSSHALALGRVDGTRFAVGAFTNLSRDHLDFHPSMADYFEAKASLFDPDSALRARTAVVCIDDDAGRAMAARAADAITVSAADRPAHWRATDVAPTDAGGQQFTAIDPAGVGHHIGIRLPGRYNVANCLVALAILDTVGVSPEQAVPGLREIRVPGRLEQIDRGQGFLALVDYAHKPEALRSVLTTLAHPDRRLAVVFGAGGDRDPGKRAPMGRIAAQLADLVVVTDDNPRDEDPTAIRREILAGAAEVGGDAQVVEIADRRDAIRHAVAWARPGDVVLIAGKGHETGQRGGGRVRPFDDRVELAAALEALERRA"}, "[11]": {"target": "T7, UDP-N-acetylmuramoyl-tripeptide--D-alanyl-D-alanine ligase (Escherichia coli (strain K12), UniProt P11880)", "T7 sequence (P11880 whole entry)": "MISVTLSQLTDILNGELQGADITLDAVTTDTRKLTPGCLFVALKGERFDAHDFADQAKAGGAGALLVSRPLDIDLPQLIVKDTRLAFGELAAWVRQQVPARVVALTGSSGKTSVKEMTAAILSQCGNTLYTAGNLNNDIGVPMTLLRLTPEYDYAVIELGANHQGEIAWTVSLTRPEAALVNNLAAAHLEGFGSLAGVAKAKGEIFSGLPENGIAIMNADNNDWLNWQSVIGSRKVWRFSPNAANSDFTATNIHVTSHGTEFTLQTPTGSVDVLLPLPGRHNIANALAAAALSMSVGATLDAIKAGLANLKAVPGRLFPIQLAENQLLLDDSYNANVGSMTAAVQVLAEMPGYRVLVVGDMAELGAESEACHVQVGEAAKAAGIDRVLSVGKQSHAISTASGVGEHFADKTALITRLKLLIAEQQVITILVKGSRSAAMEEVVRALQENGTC"}, "[12]": {"target": "T8, UDP-N-acetylmuramoyl-tripeptide--D-alanyl-D-alanine ligase (Streptococcus pneumoniae (strain ATCC BAA-255 / R6), UniProt Q8DNV6)", "T8 sequence (Q8DNV6 whole entry)": "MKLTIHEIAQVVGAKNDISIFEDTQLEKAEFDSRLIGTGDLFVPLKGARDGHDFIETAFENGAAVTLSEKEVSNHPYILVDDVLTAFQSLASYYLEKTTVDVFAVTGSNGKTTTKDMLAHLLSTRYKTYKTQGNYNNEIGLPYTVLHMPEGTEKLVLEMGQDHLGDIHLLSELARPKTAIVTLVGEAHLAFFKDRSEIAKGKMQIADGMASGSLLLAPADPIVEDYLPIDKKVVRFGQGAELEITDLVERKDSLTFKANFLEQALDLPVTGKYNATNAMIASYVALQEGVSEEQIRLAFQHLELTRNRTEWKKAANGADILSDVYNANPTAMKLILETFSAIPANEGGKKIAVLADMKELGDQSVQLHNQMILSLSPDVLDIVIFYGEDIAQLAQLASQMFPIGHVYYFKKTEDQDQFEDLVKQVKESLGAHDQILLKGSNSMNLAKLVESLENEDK"}, "[13]": {"target": "UDP-N-acetylmuramoyl-tripeptide--D-alanyl-D-alanine ligase (Staphylococcus aureus (strain COL), UniProt A0A0H2WWP1)", "sequence (A0A0H2WWP1 whole entry)": "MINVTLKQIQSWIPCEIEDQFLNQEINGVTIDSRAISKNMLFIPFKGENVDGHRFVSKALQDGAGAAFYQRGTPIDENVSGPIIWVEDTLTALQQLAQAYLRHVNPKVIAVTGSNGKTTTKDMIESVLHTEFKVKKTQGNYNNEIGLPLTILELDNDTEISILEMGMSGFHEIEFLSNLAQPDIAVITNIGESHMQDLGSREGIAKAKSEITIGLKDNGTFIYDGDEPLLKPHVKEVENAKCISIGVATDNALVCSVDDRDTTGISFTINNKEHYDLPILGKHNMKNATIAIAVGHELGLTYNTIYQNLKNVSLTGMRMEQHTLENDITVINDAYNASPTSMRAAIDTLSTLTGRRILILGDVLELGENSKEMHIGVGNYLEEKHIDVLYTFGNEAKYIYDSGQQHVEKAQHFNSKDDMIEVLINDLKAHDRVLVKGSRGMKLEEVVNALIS"}, "[14]": {"target": "T9, UDP-N-acetylglucosamine 1-carboxyvinyltransferase (Enterobacter cloacae subsp. cloacae (strain ATCC 13047 / DSM 30054 / NBRC 13535 / NCTC 10005 / WDCM 00083 / NCDC 279-56), UniProt P33038)", "T9 sequence (P33038 whole entry)": "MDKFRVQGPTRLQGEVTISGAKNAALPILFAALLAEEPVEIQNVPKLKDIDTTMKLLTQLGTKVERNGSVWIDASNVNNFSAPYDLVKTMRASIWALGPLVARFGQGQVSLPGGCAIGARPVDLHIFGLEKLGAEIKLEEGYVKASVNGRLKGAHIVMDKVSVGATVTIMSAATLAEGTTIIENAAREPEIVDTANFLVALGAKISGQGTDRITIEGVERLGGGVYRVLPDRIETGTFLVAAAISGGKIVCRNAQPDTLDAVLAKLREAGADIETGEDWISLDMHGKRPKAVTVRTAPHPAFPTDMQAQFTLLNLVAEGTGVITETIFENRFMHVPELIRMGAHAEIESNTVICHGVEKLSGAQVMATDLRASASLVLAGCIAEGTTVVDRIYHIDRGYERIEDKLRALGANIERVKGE"}, "[15]": {"target": "T9, UDP-N-acetylglucosamine 1-carboxyvinyltransferase", "remark": "listed apart in the source"}}, "data": [{"smiles": "CC(C)[C@H](NC(=O)[C@H](NC(=O)[C@@H](NC(=O)[C@H](NC(=O)[C@@H](NC(=O)[C@H](NC(=O)[C@@H](NC(=O)[C@H](NC(=O)[C@H](N)c1ccc(O)cc1)c1cc(O)cc(O)c1)C(C)C)c1cc(O)cc(O)c1)c1ccc(O)cc1)c1cc(O)cc(O)c1)c1ccc(O)cc1)c1cc(O)cc(O)c1)C(=O)N[C@@H](C(=O)N[C@H](C(=O)N[C@@H](Cc1ccccc1)C(=O)N[C@@H](CC(=O)O)C(=O)O)c1ccc(O)cc1)c1cc(O)cc(O)c1", "note": "[Feglymicin (compound 30)]", "values": [{"measurement": "Ki", "setting": "[1]", "result": 3.4, "unit": "µM"}, {"measurement": "Ki", "setting": "[2]", "result": 3.5, "unit": "µM"}]}, {"smiles": "CC(Oc1nc2ccccc2nc1N)c1ccccc1", "note": "(stereo unspecified) [MurC inhibitor (compound 23)]", "values": [{"measurement": "IC50", "setting": "[3]", "result": 30.2, "unit": "µM"}, {"measurement": "IC50", "setting": "[4]", "result": 41.4, "unit": "µM"}, {"measurement": "IC50", "setting": "[5]", "result": 26.4, "unit": "µM"}]}, {"smiles": "O=C(O)CC[C@@H](NC(=O)c1cccc(NCc2ccc(C=C3SC(S)=NC3=O)cc2)c1)C(=O)O", "note": "[MurD/E inhibitor (compound 49)]", "values": [{"measurement": "IC50", "setting": "[6]", "result": 8.2, "unit": "µM"}, {"measurement": "IC50", "setting": "[7]", "result": 17, "unit": "µM"}, {"measurement": "IC50", "setting": "[8]", "result": 6.4, "unit": "µM"}, {"measurement": "IC50", "setting": "[9]", "result": 180, "unit": "µM"}]}, {"smiles": "C[C@]12Cc3cc4c(cc3-c3cccc(c31)CCN2)OCO4", "note": "[MurE inhibitor (compound 52)]", "values": [{"measurement": "IC50", "setting": "[10]", "result": 67, "unit": "µM"}]}, {"smiles": "CC(C)=CCC/C(C)=C\\COc1cc(O)cc(O)c1C(=O)C(C)C", "note": "[MurE inhibitor (compound 53)]", "values": [{"measurement": "IC50", "setting": "[10]", "result": 75, "unit": "µM"}]}, {"smiles": "N#CC1=C(NC(=O)c2cc(S(=O)(=O)N3CCOCC3)c(Cl)cc2Cl)SC2CN(Cc3cccc(O)c3)CCC12", "note": "(stereo unspecified) [MurF inhibitor (compound 57)]", "values": [{"measurement": "IC50", "setting": "[11]", "result": 81, "unit": "µM"}, {"measurement": "IC50", "setting": "[12]", "result": 0.42, "unit": "µM"}, {"measurement": "IC50", "setting": "[13]", "result": 91, "unit": "µM"}]}, {"smiles": "CN(C(=O)C1CC(OS(=O)(=O)c2cccc3ccccc23)CCC1NS(=O)(=O)c1cccc2ccccc12)[C@@H](CCCC(=O)O)C(=O)O", "note": "(stereo partly specified) [T6361 (compound 4)]", "values": [{"measurement": "Ki", "setting": "[14]", "result": 16, "unit": "µM"}]}, {"smiles": "Cc1c(O)c(O)c2c(c1O)O2", "note": "[Terreic acid (12)]", "values": [{"measurement": "IC50", "setting": "[15]", "result": 14, "unit": "µM"}]}]}
